Data taken from article PMC4999862, “Site-specific Isopeptide Bridge Tethering of Chimeric gp41 N-terminal Heptad Repeat Helical Trimers for the Treatment of HIV-1 Infection” (Scientific Reports, 2016).
Where two headings read alike, the source gives them in different places. Bridge positions count the residues as written; N and C are the ends. I, II: the chains in the order shown.

How the values were obtained:
[1] = test system: HIV-1 BaL (subtypes B, R5)
Protocol: (§1) Briefly, 1 × 10^4 MT-2 cells were infected with an HIV-1 strain (100 times the half-maximal tissue culture infective dose) in 200 μL of culture medium with or without the serially diluted test compounds overnight. Assay plates were incubated for 72 h, after which 100 μL of culture supernatant was collected from each well and assayed for p24 antigen using ELISA as described previously. The EC50 value of each test compound was calculated using Calcusyn software.

[2] = test system: HIV-1 IIIB (subtypes B, X4)
Protocol: as §1

[3] = in vitro; format: cell-based; settings: human; uninfected MT-2 cells, XTT assay; read-out: CC50 (half maximal cytotoxic concentration)
Protocol: The cytotoxic effect of the compounds on MT-2 cells was determined using the XTT assay as described previously.

[4] = test system: NL4-3 mutant (36G)V38A/N42D; settings: read-out: EC50 against NL4-3 (36G)V38A/N42D; T20-resistant strain; MT-2 cells, p24 ELISA; mean ± SD of three independent experiments
Protocol: as §1

[5] = test system: NL4-3 mutant (36G)V38A/N42T; settings: read-out: EC50 against NL4-3 (36G)V38A/N42T; T20-resistant strain; MT-2 cells, p24 ELISA; mean ± SD of three independent experiments
Protocol: as §1

[6] = test system: NL4-3 mutant (36G)V38E/N42S; settings: read-out: EC50 against NL4-3 (36G)V38E/N42S; T20-resistant strain; MT-2 cells, p24 ELISA; mean ± SD of three independent experiments
Protocol: as §1

[7] = test system: HIV-1NL4-3(D36G); settings: read-out: EC50 against NL4-3 D36G; T20-sensitive strain; MT-2 cells, p24 ELISA; mean ± SD of three independent experiments
Protocol: as §1

[8] = test system: NL4-3 mutant (36G)N42T/N43K; settings: read-out: EC50 against NL4-3 (36G)N42T/N43K; T20-resistant strain; MT-2 cells, p24 ELISA; mean ± SD of three independent experiments
Protocol: as §1

[9] = test system: NL4-3 mutant (36G)V38A; settings: read-out: EC50 against NL4-3 (36G)V38A; T20-resistant strain; MT-2 cells, p24 ELISA; mean ± SD of three independent experiments
Protocol: as §1

[10] = test system: T20-sensitive and -resistant HIV-1 NL4-3 strains; settings: read-out: EC50 values against both T20-sensitive and -resistant strains; range over the six NL4-3 strains of Table 2
Protocol: as §1

[11] = target: T1, C34 (HIV-1 gp41 CHR peptide) (Human immunodeficiency virus type 1 group M subtype B, UniProt P04578); format: binding; settings: CD, equimolar mixture 10 μM in PBS pH 7.4; θ222nm of 33000 for 100 % helicity
[12] = test system: HIV-1 Env-mediated cell-cell fusion (HL2/3 effector cells, TZM-bl target cells); settings: for EC50: read-out: EC50 (nM) for cell-cell fusion, HL2/3 effector + TZM-bl target cells, 6 h at 37 °C, luciferase read-out, mean ± SD of three independent experiments
Protocol: The inhibitory activities of these peptides on HIV-1 Env-mediated cell-cell fusion were determined as described previously. Effector cells were HL2/3 cells, which stably express HIV Gag, Env, Tat, Rev, and Nef proteins at the cell surface (contributed by Drs. Barbara Felber and George Pavlakis). TZM-bl cells, which express high levels of CD4 and coreceptors, were used as target cells (contributed by Drs. John C. Kappes and Xiaoyun Wu). HL2/3 cells and TZM-b1 cells were obtained from the NIH AIDS Reference and Reagent Program. TZM-bl cells (2.5 × 10^4/well) were plated in a 96-well plate (Corning Costar) and cultured overnight at 37 °C in 5% CO2. Thereafter, serially diluted inhibitors were added (20 μL/well), followed by the addition of HL2/3 cells (7.5 × 10^4/well). After incubation for 6 h at 37 °C in 5% CO2, fusion efficiency was determined by measuring the luciferase activity using the Luciferase Assay System (Promega, Madison, WI) on a SpectraMax M5 plate reader (Molecular Devices, Sunnyvale, CA).

[13] = target: T1, C34 (HIV-1 gp41 CHR peptide); test: Native-PAGE of N-peptides, C34 and their complexes; format: binding; settings: equimolar mixture with C34, 37 °C 30 min, PBS pH 7.2, 12% Tris-glycine gel, Coomassie
Protocol: Equimolar mixtures of C34 and N-peptides (80 μM in PBS, pH 7.2) were incubated at 37 °C for 30 min. After mixing with 1: 1 Tris-glycine native sample buffer (BioRad, Hercules, CA), the individual N- and C- peptides and the mixture (40 μM in PBS, pH 7.2) were loaded (25 μL in each well) onto 12% Tris-glycine gels. Gel electrophoresis was run under a constant voltage of 120 V at room temperature for 2.5 h. The gel was then stained with Coomassie blue R250.

[14] = Metabolic stability in kidney homogenate; format: in vitro ADME; settings: rat kidney homogenate, 20 μM, reversed-phase HPLC, UV 210 nm
Protocol: (§2) Three male SD rats weighing approximately 200 g each were obtained from the Animal Center of Beijing Institute of Pharmacology & Toxicology and were used for the metabolic stability assay. Animals were treated in accordance with the Animal Welfare Act and the “Guide for the Care and Use of Laboratory Animals” (NIH Publication 86-23, revised 1985). Preparation of Samples.Calibration samples were prepared by mixing various concentrations of each test compound ranging from 4 to 150 μM in H2O with rat plasma or tissue homogenate at a volume ratio of 100 μL:100 μL (Supplementary Figs S5–S7). Each test sample (100 μL) was spiked with 100 μL of acetonitrile containing 0.1% TFA. The mixture was vortexed and centrifuged at 18,000 g for 10 min. Then, the supernatant was transferred to HPLC autosampler vials, and aliquots (10 μL) were injected into the HPLC system. […] The mobile phase was composed of solvent A (water containing 0.1% TFA) and solvent B (70% acetonitrile and 0.1% TFA). […] The HPLC analysis was performed on a Waters X-Bridge C8 column (4.6 × 250 mm, 5 μm, 300 Å) at ambient temperature upon injection of 20 μL of each standard and/or sample to obtain the chromatogram. The only exception was for (IZ14N24N)3 in plasma and kidney homogenate, which was analyzed using a Phenomenex Jupiter C4 column (4.6 × 250 mm, 5 μm, 300 Å).

[15] = CD spectroscopy and thermal denaturation of chimeric N-trimers; format: physicochemical; settings: for Tm (°C): CD thermal denaturation at 222 nm, 15 °C to 90 °C, PBS pH 7.4, 10 μM; for Helicity (%): CD, PBS pH 7.4, 10 μM peptide
Protocol: All measurements were performed on an MOS-450 system (BioLogic, Claix, France) at a 4.0 nm bandwidth, 0.1 nm resolution, 0.1 cm path length, 4.0 s response time and 50 nm/min scanning speed. The individual N- and C-peptides as well as their equimolar mixtures were prepared in PBS (pH 7.4) at a final concentration of 10 μM and incubated at 37 °C for 30 min. Thermal denaturation was monitored by the ellipticity change at 222 nm by application of a thermal gradient from 15 °C to 90 °C with a 2 °C interval.

[16] = Metabolic stability in liver homogenate; format: in vitro ADME; settings: rat liver homogenate, 20 μM, reversed-phase HPLC, UV 210 nm
Protocol: as §2

[17] = read-out: EC50 (nM) for inhibition HIV-1BaL replication, 100 TCID50, 72 h, p24 ELISA, mean ± SD of three independent experiments
[18] = read-out: EC50 (nM) for inhibition HIV-1IIIB replication, MT-2 cells, 100 TCID50, 72 h, p24 ELISA, mean ± SD of three independent experiments

T1 sequence (P04578 628-661): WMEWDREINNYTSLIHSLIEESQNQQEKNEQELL

Substance: Enfuvirtide
- EC50 ([1]; BaL (subtypes B, R5, 72 h)): 25.2 ± 1.9 nM
- EC50 ([2]; IIIB (subtypes B, X4, 72 h)): 4.9 ± 0.6 nM

Substance: I: Ac-EQEAIKKKIEAIEKAIEAQQHLLQLTVWGIKQLQARIL-NH2 / II: Ac-EQEAIKKKIEAIEKAIEAQQHLLQLTVWGIKQLQARIL-NH2 / III: Ac-EQEAIKKKIEAIEKAIEAQQHLLQLTVWGIKQLQARIL-NH2 (amide I:8-III:13, I:13-II:8, II:13-III:8) [(IZ14N24N)3]
- CC50 [3]: > 20000 nM
- EC50 [4]: 2.7 ± 0.1 nM
- EC50 [5]: 1.3 ± 0.8 nM
- EC50 [1, 17]: 3.2 ± 0.9 nM
- EC50 [6]: 1.2 ± 0.2 nM
- EC50 [7]: 1.3 ± 0.2 nM
- EC50 [8]: 3.3 ± 0.1 nM
- EC50 [9]: 0.7 ± 0.1 nM
- EC50 [10]: 0.7 to 3.3 nM
- EC50 [2, 18]: 0.4 ± 0.01 nM
- Helicity (%) of the 6HBs formed between chimeric N-peptides and C34 [11]: 87%
- EC50 [12]: 2.79 ± 0.1 nM
- fold greater cell-cell fusion inhibitory activity than (IZ14N17)3 ([12]; relative to (IZ14N17)3): about 8 fold
- complex formation with C34 in N-PAGE [13]: form a stable complex with C34
- stability in kidney homogenate for 24 h [14]: highly stable
- Tm (°C) [15]: > 90 °C
- Helicity (%) [15]: 100%
- stability in liver homogenate for 24 h [16]: highly stable

Substance: I: Ac-EQEAIKKKIEAIEKLLQLTVWGIKQLQARIL-NH2 / II: Ac-EQEAIKKKIEAIEKLLQLTVWGIKQLQARIL-NH2 / III: Ac-EQEAIKKKIEAIEKLLQLTVWGIKQLQARIL-NH2 (amide I:8-III:13, I:13-II:8, II:13-III:8) [(IZ14N17)3]
- CC50 [3]: 7300 ± 1700 nM
- EC50 [1, 17]: 3.3 ± 2 nM
- EC50 [2, 18]: 1.9 ± 1.2 nM
- Helicity (%) of the 6HBs formed between chimeric N-peptides and C34 [11]: 74%
- EC50 [12]: 21.9 ± 2.4 nM
- Tm (°C) [15]: > 90 °C
- Helicity (%) [15]: 100%

Substance: I: Ac-EQEAIKKKIEAIEKLLQLTVWGIKQLQARILAVERYLK-NH2 / II: Ac-EQEAIKKKIEAIEKLLQLTVWGIKQLQARILAVERYLK-NH2 / III: Ac-EQEAIKKKIEAIEKLLQLTVWGIKQLQARILAVERYLK-NH2 (amide I:8-III:13, I:13-II:8, II:13-III:8) [(IZ14N24C)3]
- CC50 [3]: 7700 ± 800 nM
- EC50 [1, 17]: 6.6 ± 0.2 nM
- EC50 [2, 18]: 4 ± 2.3 nM
- Helicity (%) of the 6HBs formed between chimeric N-peptides and C34 [11]: 76%
- EC50 [12]: 6.4 ± 1.6 nM
- Tm (°C) [15]: > 90 °C
- Helicity (%) [15]: 100%

Substance: I: Ac-IKKEQEAIKKKIEAIEKLLQLTVWGIKQLQARIL-NH2 / II: Ac-IKKEQEAIKKKIEAIEKLLQLTVWGIKQLQARIL-NH2 / III: Ac-IKKEQEAIKKKIEAIEKLLQLTVWGIKQLQARIL-NH2 (amide I:11-II:16, I:16-III:11, II:11-III:16) [(IZ17N17)3]
- CC50 [3]: 4000 ± 300 nM
- EC50 [1, 17]: 9 ± 0.2 nM
- EC50 [2, 18]: 4.1 ± 3.1 nM
- Helicity (%) of the 6HBs formed between chimeric N-peptides and C34 [11]: 70%
- EC50 [12]: 46 ± 4.6 nM
- Tm (°C) [15]: > 90 °C
- Helicity (%) [15]: 98%

Substance: I: Ac-IKKKIEAIEKAIEAQQHLLQLTVWGIKQLQARIL-NH2 / II: Ac-IKKKIEAIEKAIEAQQHLLQLTVWGIKQLQARIL-NH2 / III: Ac-IKKKIEAIEKAIEAQQHLLQLTVWGIKQLQARIL-NH2 (amide I:4-II:9, I:9-III:4, II:4-III:9) [(IZ10N24N)3]
- CC50 [3]: 6900 ± 1000 nM
- EC50 [1, 17]: 4.7 ± 0.5 nM
- EC50 [2, 18]: 1.8 ± 0.7 nM
- Helicity (%) of the 6HBs formed between chimeric N-peptides and C34 [11]: 80%
- EC50 [12]: 28.3 ± 4.3 nM
- Tm (°C) [15]: > 90 °C
- Helicity (%) [15]: 100%

Substance: I: Ac-IKKKIEAIEKLLQLTVWGIKQLQARIL-NH2 / II: Ac-IKKKIEAIEKLLQLTVWGIKQLQARIL-NH2 / III: Ac-IKKKIEAIEKLLQLTVWGIKQLQARIL-NH2 (amide I:4-II:9, I:9-III:4, II:4-III:9) [(IZ10N17)3]
- CC50 [3]: 2000 ± 200 nM
- EC50 [1, 17]: 74.7 ± 6 nM
- EC50 [2, 18]: 59.4 ± 9.1 nM
- Helicity (%) of the 6HBs formed between chimeric N-peptides and C34 [11]: 73%
- EC50 [12]: 190 ± 4.6 nM
- fold less potency than (IZN17R)3 in cell-cell fusion ([12]; relative to (IZN17R)3): 17 fold
- complex formation with C34 in N-PAGE [13]: two bands with nearly the same density
- Tm (°C) [15]: > 90 °C
- Helicity (%) [15]: 75%

Substance: I: Ac-IKKKIEAIEKLLQLTVWGIKQLQARILAVERYLK-NH2 / II: Ac-IKKKIEAIEKLLQLTVWGIKQLQARILAVERYLK-NH2 / III: Ac-IKKKIEAIEKLLQLTVWGIKQLQARILAVERYLK-NH2 (amide I:4-II:9, I:9-III:4, II:4-III:9) [(IZ10N24C)3]
- CC50 [3]: 2000 ± 400 nM
- EC50 [1, 17]: 11.4 ± 5.5 nM
- EC50 [2, 18]: 4.4 ± 0.4 nM
- Helicity (%) of the 6HBs formed between chimeric N-peptides and C34 [11]: 63%
- EC50 [12]: 13.8 ± 1.5 nM
- Tm (°C) [15]: > 90 °C
- Helicity (%) [15]: 100%
